Measurements published in the Kinase Knowledgebase extract (Sharma et al. 2016).

Tests used:
[1] = molecular target: PIK3CA (human) (UniProt P42336); test: Inhibition of PIK3CA Kinase Activity
[2] = molecular target: PIK3CA (human) (UniProt P42336); test: Inhibition of A2780 Cell Proliferation

Chain of PIK3CA (human) (P42336 whole entry, looked up): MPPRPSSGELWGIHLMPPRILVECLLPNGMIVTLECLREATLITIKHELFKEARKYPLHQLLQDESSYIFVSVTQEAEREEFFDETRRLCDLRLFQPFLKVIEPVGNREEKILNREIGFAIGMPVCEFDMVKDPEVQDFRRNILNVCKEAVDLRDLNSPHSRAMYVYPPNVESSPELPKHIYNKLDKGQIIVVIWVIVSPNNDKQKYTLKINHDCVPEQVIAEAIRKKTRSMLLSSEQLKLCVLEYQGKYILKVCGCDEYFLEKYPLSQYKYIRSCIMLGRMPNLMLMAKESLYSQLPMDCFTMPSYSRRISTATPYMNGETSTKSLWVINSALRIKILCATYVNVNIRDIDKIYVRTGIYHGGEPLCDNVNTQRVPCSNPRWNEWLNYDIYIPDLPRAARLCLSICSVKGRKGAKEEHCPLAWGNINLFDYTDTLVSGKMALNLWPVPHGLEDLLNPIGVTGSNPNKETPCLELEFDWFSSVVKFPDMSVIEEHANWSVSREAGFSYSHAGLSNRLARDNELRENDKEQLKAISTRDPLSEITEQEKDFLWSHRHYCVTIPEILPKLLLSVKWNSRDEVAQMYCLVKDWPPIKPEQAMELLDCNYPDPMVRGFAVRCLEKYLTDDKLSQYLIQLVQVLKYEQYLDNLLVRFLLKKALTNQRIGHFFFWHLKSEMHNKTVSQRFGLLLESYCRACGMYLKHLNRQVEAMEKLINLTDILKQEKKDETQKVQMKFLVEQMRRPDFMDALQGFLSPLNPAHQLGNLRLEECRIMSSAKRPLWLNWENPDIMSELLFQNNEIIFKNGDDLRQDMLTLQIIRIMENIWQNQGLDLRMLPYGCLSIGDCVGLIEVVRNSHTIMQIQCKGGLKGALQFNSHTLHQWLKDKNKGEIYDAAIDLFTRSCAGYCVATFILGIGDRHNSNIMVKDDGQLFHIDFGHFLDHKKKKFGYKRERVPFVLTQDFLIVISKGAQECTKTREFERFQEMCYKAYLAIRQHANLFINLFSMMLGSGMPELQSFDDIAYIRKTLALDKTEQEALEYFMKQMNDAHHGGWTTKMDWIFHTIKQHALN

Structure (SMILES) | IC50 [1] [nM] | EC50 [2] [µM]
Nc1ncc(-c2ccc3nc(NC(=O)CO[C@@H]4CCNC4)cn3c2)cc1C(F)(F)F | < 1000 | < 10
CC(C)(C)OC(=O)NCC(=O)Nc1cn2nc(-c3cnc(N)c(C(F)(F)F)c3)ccc2n1 | < 1000 | < 10
COc1ccccc1-c1cc(-c2ccc3nc(NC(C)=O)cn3n2)cnc1N | < 1000 | < 10
Nc1ncc(-c2ccc3nc(NC(=O)C4CCC(=O)N4)cn3c2)cc1C(F)(F)F (centres undefined) | < 1000 | 
Nc1ncc(-c2ccc3nc(NC(=O)N4CCCC4c4ccccn4)cn3c2)cc1C(F)(F)F (centres undefined) | < 1000 | < 25
C/C=C/c1c(NC(C)=O)nc2ccc(-c3cnc(N)c(C(F)(F)F)c3)cn12 | < 1000 | < 10
Nc1ncc(-c2ccc3nc(NC(=O)N4CCCC4c4ccco4)cn3c2)cc1C(F)(F)F (centres undefined) | < 1000 | 
CC(=O)Nc1nc2ccc(-c3cnc(N)c(C(F)(F)F)c3)cn2c1C#Cc1ccncc1 | < 1000 | < 1
CC(=O)Nc1cn2nc(-c3cnc(N)cc3C(F)(F)F)ccc2n1 | < 1000 | < 25
Nc1ncc(-c2ccc3nc(NC(=O)[C@@H]4CCC(=O)O4)cn3c2)cc1C(F)(F)F | < 1000 | 
CC(=O)Nc1cn2cc(-c3cnc(N)c(C)n3)ccc2n1 | < 1000 | < 10
CCC(=O)Nc1cn2cc(-c3cnc(N)c(OC)n3)ccc2n1 | < 1000 | < 10
CC(=O)Nc1cn2cc(-c3cnc(N)c(C=O)c3)ccc2n1 | < 1000 | < 10
Nc1ncc(-c2ccc3nc(NC(=O)c4ccc(N5CCNCC5)nc4)cn3c2)cc1C(F)(F)F | < 1000 | < 10
Nc1ncc(-c2ccc3nc(NC(=O)[C@@H]4CCCN4)cn3n2)cc1C(F)(F)F | < 1000 | < 10
Nc1ncc(-c2ccc3nc(NC(=O)CCCN4CCOCC4)cn3n2)cc1C(F)(F)F | < 1000 | < 1
CC(=O)Nc1cn2cc(-c3cnc(N)c(C)c3)ccc2n1 | < 1000 | < 10
CC(=O)Nc1cn2nc(-c3cnc(N)c(-c4ccn(C)n4)c3)ccc2n1 | < 1000 | < 1
CC(=O)Nc1cn2cc(-c3cnc(N)cc3F)ccc2n1 | < 1000 | < 25
CC(=O)Nc1nc2ccc(-c3ccc(NC4CCNCC4)nc3)cc2s1 | < 1000 | 
CC(=O)NC1CCN(C(=O)Nc2cn3cc(-c4cnc(N)c(C(F)(F)F)c4)ccc3n2)C1 (centres undefined) | < 1000 | < 25

Structure (SMILES) | IC50 [1] [nM] | EC50 [2] [µM]
CC(=O)N1CCCC[C@@H]1C(=O)Nc1cn2cc(-c3cnc(N)c(C(F)(F)F)c3)ccc2n1 | < 10000 | 
CC(=O)Nc1cn2cc(-c3ccc(N)nc3F)ccc2n1 | < 1000 | < 10
Nc1ncc(-c2ccc3nc(NC(=O)CO[C@@H]4CCNC4)cn3n2)cc1C(F)(F)F | < 1000 | < 1
CC(=O)Nc1cn2nc(-c3cnc(N)c(-c4ccccc4Oc4ccccc4)c3)ccc2n1 | < 1000 | < 10
COc1ccc(C#Cc2c(NC(C)=O)nc3ccc(-c4cnc(N)c(C(F)(F)F)c4)cn23)cc1 | < 1000 | < 10
Nc1ncc(-c2ccc3nc(NC(=O)C(F)(F)F)cn3c2)cn1 | < 1000 | < 25
Nc1ncc(-c2ccc3nc(NC(=O)N4CCC[C@H]4C(=O)O)cn3c2)cc1C(F)(F)F | < 10000 | 
CC(=O)Nc1cn2nc(-c3cnc(N)c(-c4ccccc4C(F)(F)F)c3)ccc2n1 | < 1000 | < 1
Nc1ncc(-c2ccc3nc(NC(=O)C4CCCC(=O)N4)cn3c2)cc1C(F)(F)F (centres undefined) | < 1000 | 
C[C@@H](N)C(=O)Nc1cn2nc(-c3cnc(N)c(C(F)(F)F)c3)ccc2n1 | < 1000 | < 10
COc1cccc(-c2cc(-c3ccc4nc(NC(C)=O)cn4n3)cnc2N)n1 | < 1000 | < 10
CC(=O)Nc1cn2cc(-c3cnc(N)c(-c4ccc(OC(F)(F)F)cc4)c3)ccc2n1 | < 1000 | < 1
Nc1ncc(-c2ccc3nc(NC(=O)CCCN4CCCCC4)cn3n2)cc1C(F)(F)F | < 1000 | < 1
Nc1ncc(-c2ccc3nc(NC(=O)CCCN4CCOCC4)cn3c2)cc1C(F)(F)F | < 1000 | < 10
CC(=O)Nc1cn2cc(-c3cnc(N)c(N4CCN(C)CC4)n3)ccc2n1 | < 1000 | < 10
CCCc1c(NC(C)=O)nc2ccc(-c3cnc(N)c(C(F)(F)F)c3)cn12 | < 1000 | < 25
CC(C)(C)OC(=O)N1CCCCC1CCC(=O)Nc1cn2nc(-c3cnc(N)c(C(F)(F)F)c3)ccc2n1 (centres undefined) | < 1000 | < 10
N#CN=C(N)NCCCC(=O)Nc1cn2nc(-c3cnc(N)c(C(F)(F)F)c3)ccc2n1 | < 1000 | 
CNCC(=O)Nc1cn2nc(-c3cnc(N)c(C(F)(F)F)c3)ccc2n1 | < 1000 | < 1
CC(=O)Nc1cn2cc(-c3cnc(N)c(O[C@H](C)C(F)(F)F)n3)cc(F)c2n1 | < 1000 | 
CC(C)C(=O)Nc1cn2cc(-c3cnc(N)c(C(F)(F)F)c3)ccc2n1 |  | < 25

Structure (SMILES) | IC50 [1] [nM] | EC50 [2] [µM]
Nc1ncc(-c2ccc3nc(NC(=O)[C@@H](O)CCC(=O)O)cn3c2)cc1C(F)(F)F | < 1000 | 
Nc1cccc(C(=O)Nc2nc3ccc(-c4cnc(N)c(C(F)(F)F)c4)cc3s2)n1 | < 10000 | 
COc1ccccc1C1CCCN1C(=O)Nc1cn2cc(-c3cnc(N)c(C(F)(F)F)c3)ccc2n1 (centres undefined) | < 1000 | 
CC(=O)Nc1cn2cc(-c3cnc(N)c(S(=O)(=O)N4CCC(Oc5ccc(F)cc5)CC4)c3)ccc2n1 | < 1000 | 
Nc1ncc(-c2ccc3nc(NC(=O)C4CCC(=O)NC4)cn3c2)cc1C(F)(F)F (centres undefined) | < 1000 | 
CC(=O)N1CCCC[C@H]1C(=O)Nc1cn2cc(-c3cnc(N)c(C(F)(F)F)c3)ccc2n1 |  | < 25
Nc1ncc(-c2ccc3nc(NC(=O)[C@H]4CCC(=O)O4)cn3c2)cc1C(F)(F)F | < 1000 | 
Nc1ncc(-c2ccc3nc(NC(=O)N4CCCC4Cc4ccccn4)cn3c2)cc1C(F)(F)F (centres undefined) | < 1000 | 
CC(=O)Nc1cn2cc(-c3cnc(N)c(Oc4ccc(N5CCN(C(C)C)CC5)cc4)n3)ccc2n1 | < 1000 | 
COCCOc1nc(-c2ccc3nc(NC(C)=O)cn3n2)cnc1N |  | < 10
CC(=O)Nc1cn2c(-c3cnc(N)c(C(F)(F)F)c3)c(-c3cnc(N)c(C(F)(F)F)c3)ccc2n1 | ≥ 25000 | 
CC(=O)Nc1nc2ccc(-c3cnc(NC(C)=O)c(C(F)(F)F)c3)cc2s1 | < 1000 | 
CC(=O)Nc1nc2ccc(-c3cnc(N)c(C(F)(F)F)c3)cn2c1C(C)=O | < 10000 | 
Nc1ncc(-c2ccc3nc(NC(=O)c4cccc(-c5nn[nH]n5)c4)cn3c2)cc1C(F)(F)F | < 1000 | 
Nc1ccc(-c2ccc3nc(NC(=O)OCCN4CCCCC4)sc3c2)cn1 | < 1000 | 
Nc1ncc(-c2ccc3nc(NC(=O)c4ccccc4C(=O)O)cn3c2)cc1C(F)(F)F | < 10000 | 
Nc1ncc(-c2ccc3nc(NC(=O)N4CCCC4c4nccs4)cn3c2)cc1C(F)(F)F (centres undefined) | < 1000 | 
CC(=O)Nc1nc2ccc(-c3ccc(N)nc3)cn2c1Br | < 10000 | 
CC(=O)Nc1cn2cc(-c3cnc(N)c(Oc4cccc(F)c4)n3)cc(F)c2n1 | < 1000 | 

Continued, values first:

IC50 [1] [nM] | EC50 [2] [µM] | Structure (SMILES)
< 1000 | < 10 | CCC(=O)Nc1cn2cc(-c3cnc(N)c(C(F)(F)F)c3)ccc2n1
< 10000 |  | CC(=O)Nc1cn2cc(-c3cnc(N)cc3C(F)(F)F)ccc2n1
< 1000 | < 10 | Nc1ncc(-c2ccc3nc(NC(=O)[C@@H]4CCN4)cn3c2)cc1C(F)(F)F
< 1000 | < 25 | CC(=O)Nc1cn2cc(-c3ccc(N)nc3C)ccc2n1
< 1000 | < 25 | C=Cc1c(NC(C)=O)nc2ccc(-c3cnc(N)c(C(F)(F)F)c3)cn12
< 1000 | < 25 | Nc1ccc(-c2ccc3nc(NC(=O)CCCN4CCOCC4)sc3c2)cn1
< 1000 | < 25 | Nc1ccc(-c2ccc3nc(NC(=O)OCCN4CCOCC4)sc3c2)cn1
< 1000 | < 10 | CC(=O)Nc1cn2cc(-c3cnc(N)c(C=NN(C)C)c3)ccc2n1
< 1000 | < 10 | CC(=O)Nc1nc2ccc(-c3cnc(N)c(C(F)(F)F)c3)cn2c1Cl
< 10000 | < 10 | NC(=O)N1CCC[C@H]1C(=O)Nc1cn2cc(-c3cnc(N)c(C(F)(F)F)c3)ccc2n1
< 1000 |  | CC(=O)Nc1cn2nc(-c3cnc(N)c(-c4ccccc4Cl)c3)ccc2n1
< 1000 | < 10 | CC(=O)Nc1cn2c(C)c(-c3cnc(N)c(OCC(F)(F)F)n3)ccc2n1
< 1000 | < 1 | CNCC(=O)Nc1cn2cc(-c3cnc(N)c(C(F)(F)F)c3)ccc2n1
< 1000 | < 10 | Nc1ncc(-c2ccc3nc(NC(=O)[C@H]4CCCCN4)cn3c2)cc1C(F)(F)F
 | < 10 | CCN1CCC(Oc2nc(-c3ccc4nc(NC(C)=O)cn4c3)cnc2N)CC1
 | < 10 | CC(=O)Nc1cn2nc(-c3cnc(N)c(OCC(F)(F)F)n3)ccc2n1
< 10000 |  | CCN(CC)CCCc1c(NC(C)=O)nc2ccc(-c3cnc(N)c(C(F)(F)F)c3)cn12
 | < 25 | CC(C)(C)OC(=O)N1CCC1C(=O)Nc1cn2nc(-c3cnc(N)c(C(F)(F)F)c3)ccc2n1 (centres undefined)
≥ 25000 |  | CC(=O)Nc1cn2cc(-c3cnc(N)c(C(F)(F)F)c3)cc(C)c2n1
< 1000 |  | CC(=O)Nc1nc2ccc(-c3ccc(NC4CCOCC4)nc3)cc2s1
< 10000 |  | CC(=O)Nc1cn2cc(-c3cnc(N)nc3N)ccc2n1
 | < 10 | Nc1ncc(-c2ccc3nc(NC(=O)[C@@H]4CCCCN4)cn3c2)cc1C(F)(F)F
 | < 25 | CNC(=O)[C@@H]1CCCN1C(=O)Nc1cn2cc(-c3cnc(N)c(C(F)(F)F)c3)ccc2n1
< 1000 |  | CC(=O)Nc1cn2cc(-c3cnc(N)c(OC(F)F)c3)ccc2n1
< 1000 |  | COc1ccc(C2CCCN2C(=O)Nc2cn3cc(-c4cnc(N)c(C(F)(F)F)c4)ccc3n2)cc1OC (centres undefined)
 | < 25 | CC(=O)Nc1cn2cc(-c3cnc(N)c(OC4CCNCC4)n3)ccc2n1
< 1000 |  | Nc1cc(C(=O)Nc2nc3ccc(-c4cnc(N)c(C(F)(F)F)c4)cc3s2)ccn1
< 1000 |  | CC(=O)Nc1cn2cc(-c3cnc(N)c(O[C@@H](C)C(F)(F)F)n3)cc(F)c2n1
 | < 10 | NC(=O)[C@@H]1CCCN1C(=O)Nc1cn2cc(-c3cnc(N)c(C(F)(F)F)c3)ccc2n1
